Assays:
[1] = test system: Echinochloa oryzoides (Ard.) Fritsch.; assay: Preemergence weed control under flooded paddy conditions, ECHORC (Watergrass (Calif.)); format: in vivo; details: flooded paddy; for ECHORC: herbicidal effect rating 0-9, three to four weeks after treatment; as to herbicidal effect rating, ECHORC: meaning of each grade not given here
[2] = test system: Cyperus iria; assay: Preemergence weed control under flooded paddy conditions, CYPIR (Rice Flatsedge); format: in vivo; details: flooded paddy; for CYPIR: herbicidal effect rating 0-9, three to four weeks after treatment; as to herbicidal effect rating, CYPIR: meaning of each grade not given here
[3] = test system: Cyperus serotinus, Rottb.; assay: Preemergence weed control under flooded paddy conditions, CYPSE (Flatsedge); format: in vivo; details: for CYPSE: herbicidal effect rating 0-9, three to four weeks after treatment; as to herbicidal effect rating, CYPSE: meaning of each grade not given here
[4] = test system: Monochoria vaginalis, Presl.; assay: Preemergence weed control under flooded paddy conditions, MOOVA (Monochoria); format: in vivo; details: flooded paddy; for MOOVA: herbicidal effect rating 0-9, three to four weeks after treatment; as to herbicidal effect rating, MOOVA: meaning of each grade not given here
[5] = test system: Sagittaria pygmaea, L.; assay: Preemergence weed control under flooded paddy conditions, SAGPY (Arrowhead (Pygmaea)); format: in vivo; details: flooded paddy; for SAGPY: herbicidal effect rating 0-9, three to four weeks after treatment; as to herbicidal effect rating, SAGPY: meaning of each grade not given here
[6] = test system: Oryza sativa, (L.) Tebonnet; assay: Rice tolerance to post-transplant applications under flooded paddy conditions (Example 187), ORYSAT (Rice, Tebonnet); details: for ORYSAT: herbicidal effect rating 0-9, three to four weeks after treatment; as to herbicidal effect rating ORYSAT: meaning of each grade not given here
[7] = 0.0313 kg/ha, preemergence, rated three to four weeks after treatment
[8] = 0.0625 kg/ha, preemergence, rated three to four weeks after treatment
[9] = 0.1250 kg/ha, preemergence, rated three to four weeks after treatment
[10] = 0.2500 kg/ha, preemergence, rated three to four weeks after treatment
[11] = Rate 0.0320 kg/ha, preemergence weeds, rated three to four weeks after treatment
[12] = Rate 0.0620 kg/ha, preemergence weeds, rated three to four weeks after treatment
[13] = Rate 0.1250 kg/ha, preemergence weeds, rated three to four weeks after treatment
[14] = Rate 0.2500 kg/ha, preemergence weeds, rated three to four weeks after treatment
[15] = Rate 0.0320 kg/ha, rated three to four weeks after treatment
[16] = Rate 0.0620 kg/ha, rated three to four weeks after treatment
[17] = Rate 0.1250 kg/ha, rated three to four weeks after treatment
[18] = Rate 0.2500 kg/ha, rated three to four weeks after treatment
[19] = Rate 0.0320 kg/ha, preemergence, rated 3-4 weeks after treatment
[20] = Rate 0.0620 kg/ha, preemergence, rated 3-4 weeks after treatment
[21] = Rate 0.1250 kg/ha, preemergence, rated 3-4 weeks after treatment
[22] = Rate 0.2500 kg/ha, preemergence, rated 3-4 weeks after treatment
[23] = Rate 0.5000 kg/ha, preemergence, rated 3-4 weeks after treatment
[24] = Rate 0.0320 kg/ha, preemergence, rated three to four weeks after treatment
[25] = Rate 0.0620 kg/ha, preemergence, rated three to four weeks after treatment
[26] = Rate 0.1250 kg/ha, preemergence, rated three to four weeks after treatment
[27] = Rate 0.2500 kg/ha, preemergence, rated three to four weeks after treatment
[28] = 0.0320 kg/ha, preemergence weeds
[29] = 0.0620 kg/ha, preemergence weeds
[30] = 0.1250 kg/ha, preemergence weeds
[31] = 0.2500 kg/ha, preemergence weeds

Cc1ccc(OCC(=O)OC(C)(C)C)c(-c2nsc3ccc(-n4c(=O)cc(C(F)(F)F)n(C)c4=O)cc23)c1 [Example 68, tert -Butyl {{2-{5-[3,6-dihydro-3-methyl-2,6-dioxo-4-(trifluoromethyl)-1(2H)-pyrimidinyl]-1,2-benzisothiazol-3-yl}-p-tolyl}oxy}acetate]
herbicidal effect rating, ECHORC [1, 7]: 7.5
herbicidal effect rating, ECHORC [1, 8]: 9.0
herbicidal effect rating, ECHORC [1, 9]: 9.0
herbicidal effect rating, ECHORC [1, 10]: 9.0
herbicidal effect rating, CYPIR [2, 7]: 7.0
herbicidal effect rating, CYPIR [2, 8]: 9.0
herbicidal effect rating, CYPIR [2, 9]: 9.0
herbicidal effect rating, CYPIR [2, 10]: 9.0
herbicidal effect rating, CYPSE [3, 7]: 6.0
herbicidal effect rating, CYPSE [3, 8]: 7.0
herbicidal effect rating, CYPSE [3, 10]: 7.0
herbicidal effect rating, MOOVA [4, 7]: 9.0
herbicidal effect rating, MOOVA [4, 8]: 9.0
herbicidal effect rating, MOOVA [4, 9]: 9.0
herbicidal effect rating, MOOVA [4, 10]: 9.0
herbicidal effect rating, SAGPY [5, 7]: 0.0
herbicidal effect rating, SAGPY [5, 8]: 0.0
herbicidal effect rating, SAGPY [5, 9]: 2.0
herbicidal effect rating, SAGPY [5, 10]: 2.0
herbicidal effect rating, ORYSAT (rice tolerance) ([6]; 0.0313 kg/ha, rated three to four weeks after treatment): 0.5
herbicidal effect rating, ORYSAT (rice tolerance) ([6]; 0.0625 kg/ha, rated three to four weeks after treatment): 1.0
herbicidal effect rating, ORYSAT (rice tolerance) ([6]; 0.1250 kg/ha, rated three to four weeks after treatment): 1.5
herbicidal effect rating, ORYSAT (rice tolerance) ([6]; 0.2500 kg/ha, rated three to four weeks after treatment): 1.0

COC(=O)c1nsc2ccc(-n3c(=O)cc(C(F)(F)F)n(C)c3=O)cc12 [Example 318, 1,2-Benzisothiazole-3-carboxylic acid, 5-[3,6-dihydro-3-methyl-2,6-dioxo-4-(trifluoromethyl)-1(2H)-pyrimidinyl]-, methyl ester]
herbicidal effect rating, ECHORC [1, 11]: 0.0
herbicidal effect rating, ECHORC [1, 12]: 3.0
herbicidal effect rating, ECHORC [1, 13]: 5.0
herbicidal effect rating, ECHORC [1, 14]: 5.0
herbicidal effect rating, CYPIR [2, 11]: 0.0
herbicidal effect rating, CYPIR [2, 12]: 2.0
herbicidal effect rating, CYPIR [2, 13]: 5.0
herbicidal effect rating, CYPIR [2, 14]: 6.0
herbicidal effect rating, CYPSE [3, 11]: 0.0
herbicidal effect rating, CYPSE [3, 12]: 0.0
herbicidal effect rating, CYPSE [3, 13]: 0.0
herbicidal effect rating, CYPSE [3, 14]: 9.0
herbicidal effect rating, MOOVA [4, 11]: 4.0
herbicidal effect rating, MOOVA [4, 12]: 6.0
herbicidal effect rating, MOOVA [4, 13]: 9.0
herbicidal effect rating, MOOVA [4, 14]: 9.0
herbicidal effect rating, SAGPY [5, 11]: 0.0
herbicidal effect rating, SAGPY [5, 12]: 0.0
herbicidal effect rating, SAGPY [5, 13]: 0.0
herbicidal effect rating, SAGPY [5, 14]: 4.0
herbicidal effect rating ORYSAT [6, 15]: 5.0
herbicidal effect rating ORYSAT [6, 16]: 5.0
herbicidal effect rating ORYSAT [6, 17]: 5.0
herbicidal effect rating ORYSAT [6, 18]: 9.0

Cc1ccc(OC(C)(C)C(=O)OCC(F)(F)F)c(-c2nsc3ccc(-n4c(=O)cc(C(F)(F)F)n(C)c4=O)cc23)c1 [Example 545, Propionic acid, 2-{{2-{5-[3,6-dihydro-3-methyl-2,6-dioxo-4-(trifluoromethyl)-1(2H)-pyrimidinyl]-1,2-benzisothiazol-3-yl}-p-tolyl}oxy}-2-methyl-, 2,2,2-trifluoroethyl ester]
herbicidal effect rating, ECHORC [1, 19]: 5.6
herbicidal effect rating, ECHORC [1, 20]: 6.6
herbicidal effect rating, ECHORC [1, 21]: 7.0
herbicidal effect rating, ECHORC [1, 22]: 9.0
herbicidal effect rating, ECHORC [1, 23]: 9.0
herbicidal effect rating, CYPIR [2, 19]: 4.0
herbicidal effect rating, CYPIR [2, 20]: 5.0
herbicidal effect rating, CYPIR [2, 21]: 6.0
herbicidal effect rating, CYPIR [2, 22]: 7.0
herbicidal effect rating, CYPIR [2, 23]: 9.0
herbicidal effect rating, CYPSE [3, 19]: 0.0
herbicidal effect rating, CYPSE [3, 20]: 0.0
herbicidal effect rating, CYPSE [3, 21]: 9.0
herbicidal effect rating, CYPSE [3, 22]: 9.0
herbicidal effect rating, CYPSE [3, 23]: 6.0
herbicidal effect rating, MOOVA [4, 19]: 6.0
herbicidal effect rating, MOOVA [4, 20]: 7.0
herbicidal effect rating, MOOVA [4, 21]: 9.0
herbicidal effect rating, MOOVA [4, 22]: 9.0
herbicidal effect rating, MOOVA [4, 23]: 9.0
herbicidal effect rating, SAGPY [5, 19]: 0.0
herbicidal effect rating, SAGPY [5, 20]: 0.0
herbicidal effect rating, SAGPY [5, 21]: 4.0
herbicidal effect rating, SAGPY [5, 22]: 7.0
herbicidal effect rating, SAGPY [5, 23]: 9.0
herbicidal effect rating ORYSAT ([6]; Rate 0.0320 kg/ha, rated 3-4 weeks after treatment): 2.0
herbicidal effect rating ORYSAT ([6]; Rate 0.0620 kg/ha, rated 3-4 weeks after treatment): 2.0
herbicidal effect rating ORYSAT ([6]; Rate 0.1250 kg/ha, rated 3-4 weeks after treatment): 4.0
herbicidal effect rating ORYSAT ([6]; Rate 0.2500 kg/ha, rated 3-4 weeks after treatment): 9.0
herbicidal effect rating ORYSAT ([6]; Rate 0.5000 kg/ha, rated 3-4 weeks after treatment): 9.0

CCOP(=O)(Cc1nsc2cc(F)c(-n3c(=O)cc(C(F)(F)F)n(C)c3=O)cc12)OCC [Example 377, 1,2-Benzisothiazole-3-methanephosphonic acid, 5-[3,6-dihydro-3-methyl-2,6-dioxo-4-(trifluoromethyl)-1(2H)-pyrimidinyl]-6-fluoro-, diethyl ester]
herbicidal effect rating, ECHORC [1, 24]: 2.0
herbicidal effect rating, ECHORC [1, 25]: 5.0
herbicidal effect rating, ECHORC [1, 26]: 7.0
herbicidal effect rating, ECHORC [1, 27]: 9.0
herbicidal effect rating, CYPIR [2, 24]: 2.0
herbicidal effect rating, CYPIR [2, 25]: 3.0
herbicidal effect rating, CYPIR [2, 26]: 4.5
herbicidal effect rating, CYPIR [2, 27]: 8.0
herbicidal effect rating, CYPSE [3, 24]: 1.0
herbicidal effect rating, CYPSE [3, 25]: 3.0
herbicidal effect rating, CYPSE [3, 26]: 5.0
herbicidal effect rating, CYPSE [3, 27]: 8.5
herbicidal effect rating, MOOVA [4, 24]: 9.0
herbicidal effect rating, MOOVA [4, 25]: 9.0
herbicidal effect rating, MOOVA [4, 26]: 9.0
herbicidal effect rating, MOOVA [4, 27]: 9.0
herbicidal effect rating, SAGPY [5, 24]: 0.0
herbicidal effect rating, SAGPY [5, 25]: 4.0
herbicidal effect rating, SAGPY [5, 26]: 8.5
herbicidal effect rating, SAGPY [5, 27]: 9.0
herbicidal effect rating ORYSAT [6, 15]: 5.5
herbicidal effect rating ORYSAT [6, 16]: 6.5
herbicidal effect rating ORYSAT [6, 17]: 8.0
herbicidal effect rating ORYSAT [6, 18]: 9.0

Cn1c(C(F)(F)F)cc(=O)n(-c2ccc3snc(C(=O)OCCCO)c3c2)c1=O [Example 410, 1,2-Benzisothiazole-3-carboxylic acid, 5-[3,6-dihydro-3-methyl-2,6-dioxo-4-(trifluoromethyl)-1(2H)-pyrimidinyl]-, 3-hydroxypropyl ester]
ECHORC [1, 28]: 0.0
ECHORC [1, 29]: 0.0
ECHORC [1, 30]: 9.0
ECHORC [1, 31]: 9.0
CYPIR [2, 28]: 9.0
CYPIR [2, 29]: 9.0
CYPIR [2, 30]: 9.0
CYPIR [2, 31]: 9.0
CYPSE [3, 28]: 2.0
CYPSE [3, 29]: 5.0
CYPSE [3, 30]: 9.0
CYPSE [3, 31]: 9.0
MOOVA [4, 28]: 9.0
MOOVA [4, 29]: 9.0
MOOVA [4, 30]: 9.0
MOOVA [4, 31]: 9.0
SAGPY [5, 28]: 3.0
SAGPY [5, 29]: 7.0
SAGPY [5, 30]: 9.0
SAGPY [5, 31]: 9.0
ORYSAT ([6]; 0.0320 kg/ha): 0.0
ORYSAT ([6]; 0.0620 kg/ha): 3.0
ORYSAT ([6]; 0.1250 kg/ha): 5.0
ORYSAT ([6]; 0.2500 kg/ha): 7.0

Reference: patent publication EP0908457B1, “3-(1,2-benzisothiazol- and isoxazol-5-Y1)-2,4(1H,3H)-pyrimidinedione or thione and 3-(1,2-benzisothiazol- and isoxazol-5-y1)-4(3H)-pyrimidinone or thione herbicidal agents” (BASF AKTIENGESELLSCHAFT, priority 1997, dated 1999)
